Where “and” joins values, the source holds several entries; their conditions need not be identical. Equal values may be shown once. Toxic doses and inconclusive results are not listed. How the source made its calls: active means survival T/C of 150% or more; inactive means T/C below 125% in these data.
System: P388 leukemia ip, CD2F1 mice, survival T/C
Experiment: NCI In Vivo Anticancer Drug Screen. Data for tumor model P388 Leukemia (intraperitoneal) in CD2F1 (CDF1) mice
Settings: endpoint: median survival time, higher = longer survival
How it was run: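 Mice carrying the transplanted tumor received test compound or vehicle. Survival was recorded in each group, and the value is the treated-group measurement divided by that of the vehicle-treated control group.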

[1] = dose: 50.0 mg/kg/injection, schedule: Q01DX009 (ip), vehicle: other
[2] = dose: 100.0 mg/kg/injection, schedule: Q01DX009 (ip), vehicle: other
[3] = dose: 200.0 mg/kg/injection, schedule: Q01DX009 (ip), vehicle: other
[4] = dose: 60.0 mg/kg/injection, schedule: Q01DX005 (ip), vehicle: saline with Tween-80
[5] = dose: 120.0 mg/kg/injection, schedule: Q01DX005 (ip), vehicle: saline with Tween-80
[6] = dose: 100.0 mg/kg/injection, schedule: Q01DX009 (ip), vehicle: saline with Tween-80
[7] = dose: 200.0 mg/kg/injection, schedule: Q01DX009 (ip), vehicle: saline with Tween-80
[8] = dose: 50.0 mg/kg/injection, schedule: Q01DX005 (ip), vehicle: saline with Tween-80
[9] = dose: 100.0 mg/kg/injection, schedule: Q01DX005 (ip), vehicle: saline with Tween-80

Measured: T/C

CCCCCOC(=S)S
inactive: dose: 9.37 mg/kg/injection, schedule: Q01DX009 (ip), vehicle: saline 109 % of control | dose: 9.37 mg/kg/injection, schedule: Q04DX003 (ip), vehicle: saline with Tween-80 95 % of control | dose: 18.75 mg/kg/injection, schedule: Q01DX009 (ip), vehicle: saline 100 % of control | dose: 18.75 mg/kg/injection, schedule: Q04DX003 (ip), vehicle: saline with Tween-80 109 % of control | dose: 37.5 mg/kg/injection, schedule: Q01DX009 (ip), vehicle: saline 100 % of control | dose: 37.5 mg/kg/injection, schedule: Q04DX003 (ip), vehicle: saline with Tween-80 104 % of control

COC(=O)CCCCc1ccc(CCCC(=O)OC)c2ccccc12
inactive: [1] 102 % of control | [2] 102 % of control | [3] 105 % of control

CN(C)c1ccc(C2=C(c3ccccc3)C(=O)C3(c4ccccc4)CC23c2ccc(N(C)C)cc2)cc1 (centres undefined)
inactive: dose: 50.0 mg/kg/injection, schedule: Q01DX005 (ip), vehicle: Klucel + Tween-80 92 % of control | dose: 100.0 mg/kg/injection, schedule: Q01DX005 (ip), vehicle: Klucel + Tween-80 90 % of control | dose: 200.0 mg/kg/injection, schedule: Q01DX005 (ip), vehicle: Klucel + Tween-80 90 % of control

Clc1ccc(N=NN2CCOC2)cc1
inactive: [4] 115 % of control | [5] 109 % of control

O=[N+]([O-])c1ccc(C(O)C(Br)[N+](=O)[O-])cc1 (centres undefined)
inactive: [6] 104 % of control | [7] 104 % of control | dose: 400.0 mg/kg/injection, schedule: Q01DX009 (ip), vehicle: saline with Tween-80 95 % of control

O=C(CCCl)OCCCl
inactive: dose: 50.0 mg/kg/injection, schedule: Q01DX009 (ip), vehicle: saline sonified 95 % of control | dose: 100.0 mg/kg/injection, schedule: Q01DX009 (ip), vehicle: saline sonified 100 % of control | dose: 200.0 mg/kg/injection, schedule: Q01DX009 (ip), vehicle: saline sonified 90 % of control

COc1ccc(C(c2cc3c(cc2O)OCO3)N2CCOCC2)c(OC)c1OC (centres undefined)
inactive: [4] 119 % of control | [5] 109 % of control | dose: 240.0 mg/kg/injection, schedule: Q01DX005 (ip), vehicle: saline with Tween-80 115 % of control

CCOC(=O)C[n+]1ccc2c([nH]c3cc(OC)ccc32)c1C
inactive: dose: 50.0 mg/kg/injection, schedule: Q01DX009 (ip), vehicle: saline 97 % of control | dose: 100.0 mg/kg/injection, schedule: Q01DX009 (ip), vehicle: saline 112 % of control | dose: 200.0 mg/kg/injection, schedule: Q01DX009 (ip), vehicle: saline 110 % of control

CC[n+]1c(-c2ccccc2)c2cc(NCCCN)ccc2c2ccc(N)cc21
inactive: dose: 1.25 mg/kg/injection, schedule: Q01DX009 (ip), vehicle: water 97 % of control | dose: 2.5 mg/kg/injection, schedule: Q01DX009 (ip), vehicle: water 116 % of control | dose: 5.0 mg/kg/injection, schedule: Q01DX009 (ip), vehicle: water 103 % of control | dose: 10.0 mg/kg/injection, schedule: Q01DX009 (ip), vehicle: water 115 % of control | dose: 20.0 mg/kg/injection, schedule: Q01DX009 (ip), vehicle: water 116 % of control

COC1/C=C/OC2(C)Oc3c(C)c(O)c4c(c3C2=O)C(=O)C=C(NC(=O)/C(C)=C\C=C\C(C)C(OC=O)C(C)C(O)C(C)C(OC(C)=O)C1C)C4=O (centres undefined)
inactive: dose: 50.0 mg/kg/injection, schedule: Q01DX009 (ip), vehicle: saline with Tween-80 100 % of control | [6] 92 % of control | [7] 91 % of control

FC(F)(F)c1nc(Cc2ccccc2)c(C(F)(F)F)o1
inactive: dose: 100.0 mg/kg/injection, schedule: Q04DX003 (ip), vehicle: saline with Tween-80 93 % of control | dose: 200.0 mg/kg/injection, schedule: Q04DX003 (ip), vehicle: saline with Tween-80 93 % of control | dose: 400.0 mg/kg/injection, schedule: Q04DX003 (ip), vehicle: saline with Tween-80 95 % of control

Cc1csc(Nc2c3ccccc3nc3ccccc23)n1
inactive: dose: 12.5 mg/kg/injection, schedule: Q04DX002 (ip), vehicle: distilled water + Tween-80 99 % of control | dose: 25.0 mg/kg/injection, schedule: Q04DX002 (ip), vehicle: distilled water + Tween-80 98 % of control | dose: 50.0 mg/kg/injection, schedule: Q04DX002 (ip), vehicle: distilled water + Tween-80 91 % of control | dose: 100.0 mg/kg/injection, schedule: Q04DX002 (ip), vehicle: distilled water + Tween-80 91 % of control | dose: 200.0 mg/kg/injection, schedule: Q04DX002 (ip), vehicle: distilled water + Tween-80 87 % of control | dose: 400.0 mg/kg/injection, schedule: Q04DX002 (ip), vehicle: distilled water + Tween-80 100 % of control

C[N+](C)(C)CCCOC1=Nc2ccccc2O/C1=C/c1ccccc1
inactive: dose: 3.12 mg/kg/injection, schedule: Q01DX009 (ip), vehicle: Klucel (hydroxypropylcellulose) (HPC) 96 % of control | dose: 6.25 mg/kg/injection, schedule: Q01DX009 (ip), vehicle: Klucel (hydroxypropylcellulose) (HPC) 92 % of control | dose: 12.5 mg/kg/injection, schedule: Q01DX009 (ip), vehicle: Klucel (hydroxypropylcellulose) (HPC) 98 % of control and 104 % of control

ClC1=CN(C2=NCCC2)CC1
inactive: dose: 6.25 mg/kg/injection, schedule: Q01DX009 (ip), vehicle: saline with Tween-80 101 % of control | dose: 12.5 mg/kg/injection, schedule: Q01DX009 (ip), vehicle: saline with Tween-80 103 % of control | dose: 25.0 mg/kg/injection, schedule: Q01DX009 (ip), vehicle: saline with Tween-80 97 % of control

C#Cc1cccc(N=Cc2cc(Cl)cc(C)c2O)c1
inactive: [8] 88 % of control | [9] 91 % of control | dose: 200.0 mg/kg/injection, schedule: Q01DX005 (ip), vehicle: saline with Tween-80 102 % of control

N#C/C(=C1/OC(=N)C(c2ccc(Cl)cc2)C1=O)c1ccc(Cl)cc1 (centres undefined)
inactive: [8] 110 % of control | [9] 99 % of control

O=[N+]([O-])c1cc2c(cc1C=Nc1ccc(O)cc1)OCO2
inactive: dose: 12.5 mg/kg/injection, schedule: Q01DX009 (ip), vehicle: other 113 % of control | dose: 25.0 mg/kg/injection, schedule: Q01DX009 (ip), vehicle: other 117 % of control | [1] 113 % of control | [2] 96 % of control | [3] 110 % of control | dose: 400.0 mg/kg/injection, schedule: Q01DX009 (ip), vehicle: other 113 % of control

OCCN(CCO)c1nc(N(CCO)CCO)c(N2CCCCC2)c(N2CCCCC2)n1
inactive: dose: 100.0 mg/kg/injection, schedule: Q04DX002 (ip), vehicle: saline 104 % of control | dose: 200.0 mg/kg/injection, schedule: Q04DX002 (ip), vehicle: saline 105 % of control | dose: 400.0 mg/kg/injection, schedule: Q04DX002 (ip), vehicle: saline 98 % of control

CCCCCCCC[N+]1([O-])CC[N+](C)([O-])CC1 (centres undefined)
inactive: dose: 60.0 mg/kg/injection, schedule: Q01DX005 (ip), vehicle: saline 100 % of control | dose: 120.0 mg/kg/injection, schedule: Q01DX005 (ip), vehicle: saline 101 % of control | dose: 240.0 mg/kg/injection, schedule: Q01DX005 (ip), vehicle: saline 102 % of control

SC(Cc1nc2ccccc2[nH]1)c1nc2ccccc2[nH]1 (centres undefined)
inactive: dose: 100.0 mg/kg/injection, schedule: Q01DX001 (ip), vehicle: Klucel + Tween-80 93 % of control | dose: 200.0 mg/kg/injection, schedule: Q01DX001 (ip), vehicle: Klucel + Tween-80 93 % of control | dose: 400.0 mg/kg/injection, schedule: Q01DX001 (ip), vehicle: Klucel + Tween-80 100 % of control
